Like-named read-outs stand apart in the source and are kept apart here.
Legend:
SARS-CoV-2 [1] = assay type: cell-based; conditions: for effect on viral N gene RNA / viral replication in proximal ALI cultures (in words): pre-treatment, 10 µM Hydroxychloroquine or Remdesivir, 100 units/ml IFNB1
SARS-CoV-2 [2] = assay type: cell-based; conditions: 10 µM Hydroxychloroquine or Remdesivir, 100 units/ml IFNB1
SARS-CoV-2 [3] = assay type: cell-based; conditions: 10 µM Hydroxychloroquine or Remdesivir, 100 units/ml IFNB1; for reduction in viral N gene RNA/expression compared to untreated infected organoids: human 3D alveolar organoids
coxsackievirus = conditions: dose-dependent; previous study; cited from earlier work

SMILES | effect on viral N gene RNA / viral replication in proximal ALI cultures (in words) (SARS-CoV-2 [1]) | effect on viral N gene RNA / viral replication in proximal ALI cultures (in words) (SARS-CoV-2 [1]; listed as hydroxychloroquine) | reduction in viral N gene RNA/expression compared to untreated infected AT2 cultures (SARS-CoV-2 [2]) [log] | effect on viral infection/replication in AT2 cultures (in words) (SARS-CoV-2 [2]; pre-treatment) | reduction in viral N gene RNA/expression compared to untreated infected organoids (SARS-CoV-2 [3]) [log] | effect on viral replication in alveolar organoid cultures (in words) (SARS-CoV-2 [3]; pre-treatment) | reduction in viral N gene RNA abundance (SARS-CoV-2 [1]) [log] | effect on coxsackievirus proliferation in vitro (coxsackievirus)
CCN(CCO)CCCC(C)Nc1ccnc2cc(Cl)ccc12 (stereo not shown) [Hydroxychloroquine] | did not show a significant effect | did not have an effect on viral replication | 2.4 | significantly reduced viral replication | 2.4 | significantly reduced viral replication |  | 
CCC(CC)COC(=O)[C@H](C)N[P@](=O)(OC[C@H]1O[C@@](C#N)(c2ccc3c(N)ncnn23)[C@H](O)[C@@H]1O)Oc1ccccc1 [Remdesivir] |  |  | 9 |  | 9 |  | 10.2 | 
NC(=O)c1ncn([C@@H]2O[C@H](CO)[C@@H](O)[C@H]2O)n1 [ribavirin] |  |  |  |  |  |  |  | significantly reduce coxsackievirus proliferation

Source: patent US20230174946A1, “ORGAN INFECTION MODELS” (priority 2020, published 2023)
